Experimental data taken from paper PMC4394749 (Journal of medicinal chemistry, 2015).

Experiments:
[1] = system: KB (epidermoid carcinoma of the nasopharynx); conditions: read-out: IC50 KB; SRB; compound marked 'See ref [15]'; cited from earlier work
[2] = system: PC-3 cells; test: Cell cycle analysis by flow cytometry; type: cell-based, human; conditions: 2 µM, 24 h
[3] = target: ZR-75-1 (estrogen-receptor-positive, HER2-positive breast cancer); conditions: read-out: IC50 ZR-75-1; SRB; compound marked 'See ref [15]'; cited from earlier work
[4] = system: PC-3 (prostate cancer); conditions: read-out: IC50 PC-3; SRB; compound marked 'See ref [15]'; cited from earlier work
[5] = system: HepG2 (hepatocellular carcinoma); conditions: read-out: IC50 Hep-G2; SRB; compound marked 'See ref [15]'; cited from earlier work
[6] = system: KB cells; test: Cell cycle analysis by flow cytometry; type: cell-based, human; conditions: 6 or 24 h, PXL 0.02 µM, 4 0.5 µM, 8 2 µM
[7] = target: MCF-7 (estrogen-receptor-positive, HER2-negative breast cancer); conditions: read-out: IC50 MCF-7; SRB; compound marked 'See ref [15]'; cited from earlier work
[8] = system: SK-BR-3 (HER2-overexpressing breast cancer); conditions: read-out: IC50 SK-BR3; SRB; compound marked 'See ref [15]'; cited from earlier work
[9] = system: KB-VIN cells; test: Cell cycle analysis by flow cytometry; type: cell-based, human; conditions: 6 or 24 h, PXL 3 µM, 4 0.5 µM, 8 2 µM
[10] = system: A549 (lung carcinoma); conditions: read-out: IC50 A549; SRB; compound marked 'See ref [15]'; cited from earlier work
[11] = system: KB-VIN (P-gp-overexpressing MDR subline of KB); conditions: read-out: IC50 KB-VIN; SRB; compound marked 'See ref [15]'; cited from earlier work
[12] = system: MDA-MB-231 (triple-negative breast cancer); conditions: read-out: IC50 MDA-MB-231; SRB; compound marked 'See ref [15]'; cited from earlier work
[13] = system: HCT-8 (human colon adenocarcinoma); conditions: read-out: IC50 HCT-8; SRB; compound marked 'See ref [15]'; cited from earlier work
[14] = system: PC-3 cells; test: Immunofluorescence staining of microtubules in PC-3 cells; type: cell-based, human; conditions: PC-3, 24 h

Compound: CCC1=C(O)c2c(oc(-c3csc4ccccc34)cc2=O)C(CC)(CC)C1=O [Compound 4, 2-(benzo[b]thiophene-3′-yl)-6,8,8-triethyldesmosdumotin B]
- IC50 [1]: 80 nM
- effect on cell cycle distribution [2]: efficiently induced accumulation of G2/M phase cells
- IC50 [3]: 850 nM
- IC50 [4]: 160 nM
- IC50 [5]: 130 nM
- effect on cell cycle distribution [6]: Accumulation of G2/M phase as well as S phase cells
- IC50 [7]: 720 nM
- IC50 [8]: 500 nM
- effect on cell cycle distribution [9]: Accumulation of G2/M phase as well as S phase cells
- IC50 [10]: 60 nM
- IC50 [11]: 70 nM
- IC50 [12]: 700 nM
- IC50 [13]: 130 nM
- microtubule morphology ([14]; equitoxic concentrations: 0.2 µM 4, 0.2 µM CA-4, 5 µM VIN, 0.2 µM PXL): induced depolymerization of cytosolic microtubules as well monopolar (arrow heads) or multipolar spindle formations in the G2/M-phase
- dose-dependent effects on microtubule morphology ([14]; compounds 0.2, 2 or 20 µM, CA-4 0.002 or 20 µM): Dose-dependent disruption of both interphase microtubules and spindles
